We go through six compounds from US9415055B2, “Cyclic amines” (H. Lundbeck A/S, priority 2012, dated 2016).

Each structure is given as a SMILES string. pIC50: −log10 of the molar value.

The target of the assay is P2X7 receptor (Homo sapiens (Human), UniProt Q99572). As to the kind of experiment: P2X7 FLIPR assay: antagonism of BzATP response in 293 HEK cells stably expressing P2X7 receptor. The format is cell-based. The conditions noted are these: FLIPR fluorescence (Fluo-4), agonist BzATP, 293 HEK cells stably transfected with P2X7 receptor. A digest of the protocol: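 Antagonist IC50 derived from FLIPR Tetra Fluo-4 calcium signal evoked by BzATP. Compound pre-incubation was 30 min at room temperature on P2X7-expressing HEK293 cells, seeded 24 h before in low-serum medium and dye-loaded 30 min at 37 °C then 30 min at RT.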
Sequence of P2X7 receptor (Q99572 whole entry): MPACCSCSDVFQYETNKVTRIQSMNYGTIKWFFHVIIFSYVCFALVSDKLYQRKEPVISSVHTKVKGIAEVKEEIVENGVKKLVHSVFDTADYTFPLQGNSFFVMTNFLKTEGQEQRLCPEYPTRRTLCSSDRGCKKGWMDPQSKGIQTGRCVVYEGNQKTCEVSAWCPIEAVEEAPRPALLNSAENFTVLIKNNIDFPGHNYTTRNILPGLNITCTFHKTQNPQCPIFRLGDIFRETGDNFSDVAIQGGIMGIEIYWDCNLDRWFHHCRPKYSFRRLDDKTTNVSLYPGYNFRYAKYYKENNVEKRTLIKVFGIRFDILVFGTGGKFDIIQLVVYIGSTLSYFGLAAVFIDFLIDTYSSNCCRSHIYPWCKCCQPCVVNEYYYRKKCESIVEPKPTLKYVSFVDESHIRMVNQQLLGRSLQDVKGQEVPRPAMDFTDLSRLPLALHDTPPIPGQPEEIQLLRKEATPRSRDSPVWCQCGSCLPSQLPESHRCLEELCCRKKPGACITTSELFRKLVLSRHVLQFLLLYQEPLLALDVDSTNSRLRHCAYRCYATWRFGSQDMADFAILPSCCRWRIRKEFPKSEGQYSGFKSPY
The term pIC50 denotes the IC50 on a negative log10 scale, so that one unit is a factor of ten. A high value points to a low IC50. `O=C(NCC(c1ccc(C(F)F)nc1)N1CCC(F)(F)CC1)c1c(Cl)cccc1Cl` (single isomer, unassigned; (-)) [(−)2,6-dichloro-N-[2-[6-(difluoromethyl)-3-pyridyl]-2-(4,4-d] [(−)2,6-dichloro-N-(2-(2-(difluoromethyl)pyridin-5-yl)-2-(4,4-difluoropiperidin-1-yl)ethyl)benzamide] gave a pIC50 of 8.26.

Compound `O=C(NCC(c1ccc(C(F)(F)F)nc1)N1CCOCC1)c1cccc(Cl)c1Cl` (single isomer, unassigned; (+)) [(+)2,3-dichloro-N-[2-morpholino-2-[6-(trifluoromethyl)-3-pyr] [(+)2,3-Dichloro-N-[2-morpholino-2-[6-(trifluoromethyl)-3-pyridyl]ethyl]benzamide] gave a pIC50 of 8.26.

Consider `Cc1ncc(C(CNC(=O)c2ccc(Cl)cc2Cl)N2CCC(Cl)CC2)cn1` (stereo not drawn) [2,4-dichloro-N-(2-(4-chloropiperidin-1-yl)-2-(2-methylpyrimidin-5-yl)ethyl)benzamide], for which the pIC50 is 6.55.

In turn, `Cc1ncc(C(CNC(=O)c2c(Cl)ccc(F)c2Cl)N2CCC(F)(F)CC2)cn1` (single isomer, unassigned; (+)) [(+)2,6-dichloro-N-[2-(4,4-difluoro-1-piperidyl)-2-(2-methylp] [(+)2,6-dichloro-5-fluoro-N-(2-(4,4-difluoropiperidin-1-yl)-2-(2-methylpyrimidin-5-yl)ethyl)benzamide] showed a pIC50 of 7.60.

The compound `Cc1ncc(C(CNC(=O)c2cccc(Cl)c2Cl)N2CCC(Cl)CC2)cn1` (stereo not drawn) [2,3-dichloro-N-(2-(4-chloropiperidin-1-yl)-2-(2-methylpyrimidin-5-yl)ethyl)benzamide] had a pIC50 of 8.24.

Compound `O=C(NCC(c1ccc(C(F)F)nc1)N1CCC(F)(F)CC1)c1ccccc1Cl` (single isomer, unassigned; (+)) [(+)2-chloro-N-[2-[6-(difluoromethyl)-3-pyridyl]-2-(4,4-diflu] [(+)2-chloro-N-(2-(2-(difluoromethyl)pyridin-5-yl)-2-(4,4-difluoropiperidin-1-yl)ethyl)benzamide] gave a pIC50 of 8.05.
